According to US12017976B1, “1-(4-carbonoimidoylphenoxy)-3-{4-[(e)-(phenylimino)methyl]phenoxy }propan-2-ol as an eco-friendly insecticidal agent against Spodoptera littoralis (boisd.)” (KING FAISAL UNIVERSITY, priority 2024, dated 2024):
≈ marks a conversion by molar mass, not a printed value.

Key:
[1] = test system: Spodoptera littoralis larvae (2nd and 4th instar); test: Insecticidal leaf dip bioassay on larvae of the laboratory strain of cotton leafworm
Protocol: Five concentrations (200, 100, 50, 25, 12.5 ppm) were designed for this synthetic compound and the reference fenoxycarb's compound as the dynamic ingredients based on ppm via diluting the commercial formulation.
In this experiment, the synthetic compound was tested for its insecticidal bioactivity using the industry-standard leaf dip bioassay techniques. […] Until usage, the stocks were kept in a refrigerator. The target substance test results were noted & the concentrations needed to destroy 50% (LC50) of S. littoralis larvae were calculated. The target compound was employed in five different concentrations, & 0.1% Tween 80 was employed as a surfactant. Castor bean leaf discs (nine centimeters in diameter) were dipped in the concentration under test for ten seconds, then fed to 2th & 4th larvae, which were roughly the same size and housed in glass jars (five pound). Each action carried out 3 times with ten larvae each. The mortality equalized via Abbott's formula. […] The mortality results of larval insect were estimated through employing probit analysis through a statistics (LDP-line) equation which estimate the LC50 values with 95% fiducially limits of lower, upper confidence limit and slope.

aquatic insects = details: highly toxic / very highly toxic classification; cited from earlier work

| SMILES | Toxicity index %, 2nd instar larvae ([1]; 2nd instar larvae, 72 hours, fenoxycarb's LC50 / compound's LC50) | Toxicity index %, 4th instar larvae ([1]; 4th instar larvae, 72 hours, fenoxycarb's LC50 / compound's LC50) | LC50 ([1]; Spodoptera littoralis, in Gossypium hirsutum, foliar, read-out: LC50 against Spodoptera littoralis) | LC50 for aquatic insects (aquatic insects) |
| --- | --- | --- | --- | --- |
| CCOC(=O)NCCOc1ccc(Oc2ccccc2)cc1 [fenoxycarb] | 100% | 100% | 5.94 µg/mL (≈ 19.7 µM) | – |
| CCc1ccc(C(=O)NN(C(=O)c2cc(C)cc(C)c2)C(C)(C)C)cc1 [tebufenozide] | – | – | – | 100 to 1000 µg/mL |
